Experimental data from patent US20260191924A1, “METHODS AND COMPOSITIONS FOR TREATING VIRAL INFECTIONS” (DST Pharma, Inc., priority 2020, published 2026).

How the values were obtained:
FCV F9 [1] = experiment: Effect of 5,7,3′,4′-tetrarydroxyflavon-3-ol C4-C8 dimers on FCV F9 infection of CRFK cells; type: cell-based, feline calicivirus (cat kidney CRFK cells); details: 0.1% dimers, added before, with or after virus (FIG. 6)
Description: 50 μl of virus was added to 450 μl complete EMEM to create a 10^−1 viral mix. A series of dilutions made from this mix up to 10^−8. Virus was added to all wells by loading 250 μl from each dilution to the designated wells. 3 well repeats were prepared. Purified 5, 7, 3′, 4′-tetrarydroxyflavon-3-ol C4-C8 dimers was diluted to 0.1% in complete EMEM.
For experiments in which 5, 7, 3′, 4′-tetrarydroxyflavon-3-ol C4-C8 dimers was added before the virus, 5, 7, 3′, 4′-tetrarydroxyflavon-3-ol C4-C8 dimers was diluted to 0.1% using MM (1:100), added to cells and incubated for 1 hour before the virus was added to the cells.
For experiments in which 5, 7, 3′, 4′-tetrarydroxyflavon-3-ol C4-C8 dimers was added simultaneously with the virus, the virus was diluted in 0.1% purified complete EMEM, added to wells, incubated for 1 hour, then complete EMEM was added to the wells.
For experiments in which 5, 7, 3′, 4′-tetrarydroxyflavon-3-ol C4-C8 dimers was added after viral infection, viral dilutions were added to wells, incubated for 1 hour, 0.1% complete EMEM was added to the wells. The medium was changed to complete EMEM after 60 minutes.

FCV F9 [2] = experiment: Effect of quercetin on FCV F9 infection of CRFK cells; type: cell-based, feline calicivirus (cat kidney CRFK cells); details: 0.1% quercetin, added 1 hour before, with, or 1 hour after virus (FIG. 4)
Description: 50 μl of the virus was added to 450 μl HBSS making a 10^−1 viral titer mix. A series of dilutions made from this mix up to 10^−8. Virus was added to all wells by loading 250 μl from each dilution to the designated wells, same as for viral titer. 3 well repeats were prepared. Quercetin was prepared at 10% quercetin in DMSO.
For experiments in which quercetin was added before viral infection, the quercetin was diluted to 0.1% using MM (1:100), added to cells, and incubated for 1 hour.
For experiments in which quercetin was added at the same time as viral infection, the virus was diluted in 0.1% quercetin MM/DMSO, added to wells, incubated for 1 hour, and then MM was added.
For experiments in which quercetin was added after viral infection, viral dilutions were added to the cells, incubated for 1 hour, then 0.1% quercetin in MM/DMSO was added. The medium was changed to MM after 60 minutes.

| SMILES | effect against FCV infection (FCV F9 [1]) | inhibition of FCV F9 infection of CRFK cells (FCV F9 [2]) |
| --- | --- | --- |
| Oc1cc(O)c2c(c1)OC(c1ccc(O)c(O)c1)C(O)C2c1c(O)cc(O)c2c1OC(c1ccc(O)c(O)c1)C(O)C2 (centres unmarked) [5,7, 3′, 4′-tetrahydroxyflavan-3-ol C4-C8 dimers] | effective against FCV infection comparable to quercetin and better than rutin |  |
| O=c1c(O)c(-c2ccc(O)c(O)c2)oc2cc(O)cc(O)c12 [quercetin, 3, 3′, 4′, 5,7-pentahydroxyfivanone] |  | significantly inhibited |
